Test results as given in patent US20150011501A1, “PARTIALLY DEPOLYMERIZED GLYCOSAMINOGLYCAN SILVER AND GOLD SALTS” (priority 2012, published 2015).

Key:
[1] = tested on: S. Aureus; assay: Test of antimicrobial activity (halo diameter on plate); format: cell-based; set-up: unit not given here; conditions: chondroitin sulfate products 10% w/v, hyaluronic acid products 1.4% w/v in water
Description: (§1) The objective of the test was to verify the antimicrobial activity with the microorganisms E. Coli and S. Aureus. For this purpose, solutions in water of the following products were separately prepared: • Commercially available sodium chondroitin sulfate of marine origin having a molecular weight between 25,000 and 40,000 Daltons. Product described in European Pharmacopeia (01/2009:2064) (comparative example 10); • High molecular weight silver chondroitin sulfate (comparative example 8); • Partially depolymerized silver chondroitin sulfate (example 1); • High molecular weight silver hyaluronate (comparative example 9); • Partially depolymerized silver hyaluronate (example 2); • AgNO3 (comparative example 11); • Partially depolymerized gold chondroitin sulfate (example 3); • Partially depolymerized gold hyaluronate (example 4); and • Mixture of 1 g of commercially available sodium chondroitin sulfate of marine origin having a molecular weight between 25,000 and 40,000 Daltons and 0.1 g of AgNO3 (comparative example 12).
(§2) The products derived from chondroitin sulfate were dissolved at 10% (weight/volume). The products derived from hyaluronic acid were dissolved at 1.4% (weight/volume). For the rest of products water was added until complete dissolution.
(§3) Each of the products was applied, as well as a control (water), to a plate with S. Aureus and E. Coli. The products were incubated under standard conditions for S. Aureus and E. Coli. The results were expressed in areolar or halo diameter and were the following: for the comparative example 10 it was 0 in E. Coli and 0 in S. Aureus; for the comparative example 8 it was 7 in E. Coli and 8 in S. Aureus; for the example 1 it was 7 in E. Coli and 6 in S. Aureus; for the comparative example 9 it was 8 in E. Coli and 8 in S. Aureus; for the example 2 it was 7 in E. Coli and 6 in S. Aureus; for the comparative example 11 it was 8 in E. Coli and 6 in S. Aureus; for the example 3 it was 9 in E. Coli and 8 in S. Aureus; for the control it was 0 in E. Coli and 0 in S. Aureus; for the example 4 it was 4 in E. Coli and 6 in S. Aureus; and for the comparative example 12 it was 7 in E. Coli and 5 in S. Aureus.

[2] = tested on: E. Coli; assay: as above; format: cell-based; set-up: unit not given here; conditions: chondroitin sulfate products 10% w/v, hyaluronic acid products 1.4% w/v in water
Description: as §1, §2, §3

[3] = Preliminary test of toxicology (topical): side effects by visual inspection; format: in vivo
Method: (§4) The aim of this test was to assess the toxicity (topical) and effectiveness in burns. The side effects that the different products could cause including irritation, inflammation and/or darkening were assessed by visual inspection and photographs. The products assessed were the following: • Commercially available sodium chondroitin sulfate of marine origin having a molecular weight between 25,000 and 40,000 Daltons. Product described in European Pharmacopeia (01/2009:2064) (comparative example 10); • Partially depolymerized silver chondroitin sulfate (example 1); • Partially depolymerized silver chondroitin sulfate dissolved/mixed in a moisturizing cream (example 1c); • Partially depolymerized silver hyaluronate (example 2); • AgNO3 (comparative example 11); and • Partially depolymerized gold chondroitin sulfate (example 3).
(§5) The products derived from chondroitin sulfate were dissolved in water at 10% (weight/volume). The products derived from hyaluronic acid were dissolved at 1.4% (weight/volume). For the silver nitrate water was added until complete dissolution. The product of example 1c was mixed with a moisturizing cream.
All the products were applied in the “upper area of the arm” (upper biceps) and in the abdomen (area of the ribs). The products of examples 1, 2 and 3 were also applied in the “lower area of the arm”. The visual inspections were carried out with the following frequency after the application: 10 minutes, 30 minutes, 60 minutes, 8 h, 3 days, 4 days, 7 days and 9 days.
The treated areas were exposed to different types of light (solar, incandescent bulb, fluorescent) for 10 minutes. Darkening was not observed in any case. The abdomen was protected from the light after 10 minutes. The “upper area of the arm” was left under light exposure up to 8 hours. The “lower area of the arm” had continuous exposure to ambient light.

[4] = Viscosity test (dissolution time, appearance, displacement time); format: physicochemical; conditions: 0.01 g in 0.5 mL water, tube inverted (180° rotation)
Description: The objective of the test was to verify that the viscosity of the partially depolymerized products obtained is lower than the viscosity of the starting products (non-depolymerized). The products assessed were the following: • High molecular weight silver chondroitin sulfate (comparative example 8); • Partially depolymerized silver chondroitin sulfate (example 1); • High molecular weight silver hyaluronate (comparative example 9) and • Partially depolymerized silver hyaluronate (example 2).
The following parameters were assessed: dissolution time, appearance (visual method) and displacement time.
0.01 g of each product was dissolved separately in 0.5 mL of distilled water in test tubes of 11.5 cm of length and 1 cm of diameter. Once the products were completely dissolved, the position of the tubes was inverted to check the displacement time.

[5] = Stability test (visual inspection of colour in the dark and under ambient light); format: physicochemical; conditions: precipitated product
Method: After this time, a visual inspection of the products was carried out and the products were protected in the dark again. After 12 hours, another visual inspection of the products was carried out. The products were then exposed to ambient light. After 5 hours, a visual inspection of the products was carried out.

[6] = Absorption test on cellulose paper; format: physicochemical
Method: A comparative test of the absorption of the depolymerized compounds of the invention and the non-depolymerized compounds was carried out. To do this, partially depolymerized silver chondroitin sulfate (example 1) and high molecular weight silver chondroitin sulfate (comparative example 8) were dissolved separately with water at the same concentration (10% by weight/volume). Once the products were completely dissolved it was noted that the viscosity of the product of example 1 was lower than that of the product of the comparative example 8. 10 mL of each product were applied on cellulose paper.

[7] = Preliminary test of effectiveness in burns; format: in vivo; conditions: for efficacy in skin surfaces with burns or wounds: overall conclusion
Method: as §4, §5
In the application of the product of the comparative example 11 irritation was observed both in the “upper area of the arm” and in the abdomen at 10 minutes and at 30 minutes. […] At this moment, the product of example 1 was applied to the burn of the abdomen. 2 daily applications of the product of example 1 were done to the burn during the next 3 days. […] At this moment, the product of example 2 was applied to the burn of the “upper area of the arm”. 3 daily applications of the product of example 2 were done to the burn.

[8] = Acute oral toxicology test (OECD Guideline No. 420, fixed dose); format: in vivo; set-up: median lethal oral dose (LD50): unit not given here
Method: An acute oral toxicology test of partially depolymerized silver chondroitin sulfate (example 1) was carried out to assess the oral toxicity and identify the corresponding classification (GHS, Globally Harmonised Classification System for Chemical Substances and Mixtures). The study was conducted according to the OECD Guideline No. 420 (fixed dose).

[9] = after 5 hours of exposure to ambient light

| Compound | areolar or halo diameter [1] | areolar or halo diameter [2] | displacement time [4] [s] | color (visual inspection) ([5]; after 1 hour in the dark) | color (visual inspection) [5, 9] | color (visual inspection) ([5]; after 12 hours in the dark) | also measured |
| --- | --- | --- | --- | --- | --- | --- | --- |
| O=[N+]([O-])[O-].[Ag+] [comparative example 11, AgNO3] | 6 | 8 |  |  |  |  | side effects by visual inspection ([3]; topical, after 8 hours): irritation, itching, burning and a halo or aureole; side effects by visual inspection ([3]; topical, after the third day): increase of the diameter of the aureole of the burn; side effects by visual inspection ([3]; topical, parts where product was applied, after 60 minutes): irritation, itching and burning; side effects by visual inspection ([3]; topical, upper area of the arm and abdomen, at 10 minutes and at 30 minutes): irritation; side effects by visual inspection ([3]; topical, upper area of the arm, after the fourth day): increase of the diameter of the aureole of the burn; side effects by visual inspection ([3]; topical, upper area of the arm, after the seventh day): diameter of the aureole of the burn increased |
| High Molecular Weight Silver Chondroitin Sulfate [comparative example 8] | 8 | 7 | 30 | white | dark red | white |  |
| High Molecular Weight Silver Hyaluronate [comparative example 9] | 8 | 8 | 300 |  |  |  |  |
| Partially Depolymerized Gold Chondroitin Sulfate [example 3] | 8 | 9 |  |  |  |  | problems of darkening, irritation, itching or inflammation ([3]; in vivo): did not have problems of darkening, irritation, itching or inflammation; side effects by visual inspection ([3]; in vivo): no relevant behavior |
| Partially Depolymerized Gold Hyaluronate [example 4] | 6 | 4 |  |  |  |  |  |
| Partially Depolymerized Silver Chondroitin Sulfate (Without Bleaching Step) [comparative example 7] |  |  |  | white | dark red | white |  |
| Partially Depolymerized Silver Chondroitin Sulfate [example 1] | 6 | 7 | 1 | white | white | white | side effects by visual inspection ([3]; topical, all areas applied, all inspections from 10 minutes to 9 days): no relevant behavior; problems of darkening, irritation, itching or inflammation ([3]; topical, overall conclusion, unlike silver nitrate): did not have problems of darkening, irritation, itching or inflammation; viscosity relative to comparative example 8 ([6]; 10% by weight/volume in water): lower; absorption on cellulose paper relative to comparative example 8 ([6]; 10 mL of 10% w/v solution applied on cellulose paper): absorbed more rapidly; efficacy in skin surfaces with burns or wounds [7]: produce an improvement; burn healing (visual) ([7]; silver nitrate burn of the abdomen, 2 daily applications from third day, observed after the fourth day): nearly full disappearance of the burn; GHS classification ([8]; Globally Harmonised Classification System): 5; median lethal oral dose (LD50) ([8]; OECD Guideline No. 420 fixed dose): > 2000 |
| Partially Depolymerized Silver Hyaluronate [example 2] | 6 | 7 | 1 |  |  |  | problems of darkening, irritation, itching or inflammation ([3]; in vivo): did not have problems of darkening, irritation, itching or inflammation; side effects by visual inspection ([3]; in vivo): no relevant behavior; efficacy in skin surfaces with burns or wounds [7]: produce an improvement; burn healing (visual) ([7]; silver nitrate burn of the upper area of the arm, 3 daily applications from seventh day, observed after the ninth day): almost completely disappeared |
| Partially Depolymerized Ssilver Chondroitin Sulfate (Bleaching Agent: Sodium Metabisulfite) [comparative example 5] |  |  |  | reddish | black | reddish to black |  |
| sodium chondroitin sulfate [comparative example 10] | 0 | 0 |  |  |  |  |  |
